From US8642590B2, “Alkylcyclohexylethers of dihydrotetraazabenzoazulenes” (Hoffmann-La Roche Inc., priority 2008, dated 2014)

Target: T1, human V1a receptor (Homo sapiens, UniProt P37288)
T1 construct: expressed in transfected cells; host or cells: HEK293 cells, transiently transfected; cell membranes prepared
Experiment: human V1a receptor binding study (3H-Vasopressin, SPA beads, HEK293 membranes)
Conditions: membranes of HEK293 cells transiently transfected with human V1a receptor; 3H-Vasopressin; Ki calculated using the Cheng-Prussoff equation; read-out: pKi (hV1a) (converted)
How it was run: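 Membranes from transiently transfected HEK293 cells on SPA beads in Tris with 120 mM NaCl, 5 mM KCl, 2 mM CaCl2 and 10 mM MgCl2. 3H-vasopressin is added as a 4 nM solution, with cold vasopressin defining non-specific binding. After 1 h at room temperature, IC50 by non-linear fit; Ki by Cheng-Prusoff.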

T1 sequence (P37288 whole entry): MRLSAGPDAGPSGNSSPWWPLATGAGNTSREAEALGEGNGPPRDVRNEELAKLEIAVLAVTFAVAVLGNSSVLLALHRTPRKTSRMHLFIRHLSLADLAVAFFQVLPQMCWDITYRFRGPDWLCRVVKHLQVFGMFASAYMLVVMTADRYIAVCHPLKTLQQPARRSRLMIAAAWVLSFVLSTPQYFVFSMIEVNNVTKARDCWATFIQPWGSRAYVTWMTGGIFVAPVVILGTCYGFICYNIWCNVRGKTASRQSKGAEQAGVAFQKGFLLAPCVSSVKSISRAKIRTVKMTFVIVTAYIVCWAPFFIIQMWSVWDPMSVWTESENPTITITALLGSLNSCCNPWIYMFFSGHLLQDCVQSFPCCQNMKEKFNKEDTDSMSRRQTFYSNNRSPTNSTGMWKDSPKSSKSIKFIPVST

Q: Which Ki does the source give for `CC(C)O[C@H]1CC[C@H](c2nnc3n2-c2ccc(F)cc2CN(C)C3)CC1` [Example 21, trans-8-Fluoro-1-(4-isopropoxy-cyclohexyl)-5-methyl-5,6-dihydro-4H-2,3,5,10b-tetraaza-benzo[e]azulene] here?
A: Its Ki is 29.5 nM.

Q: For `CC(CC(F)(F)F)O[C@H]1CC[C@H](c2nnc3n2-c2ccc(Cl)cc2CN(C)C3)CC1` (mixture of isomers) [Example 56, (RS)-trans-8-Chloro-5-methyl-1-[4-(3,3,3-trifluoro-1-methyl-propoxy)-cyclohexyl]-5,6-dihydro-4H-2,3,5,10b-tetraaza-benzo[e]azulene], which Ki is on record?
A: Its Ki is 6.76 nM.

Q: How did the Ki turn out when `CN1Cc2cc(Cl)ccc2-n2c(nnc2[C@H]2CC[C@H](OC3CCC3)CC2)C1` [Example 32, trans-8-Chloro-1-(4-cyclobutoxy-cyclohexyl)-5-methyl-5,6-dihydro-4H-2,3,5,10b-tetraaza-benzo[e]azulene] was run?
A: Its Ki is 1.29 nM.
